Values after ≈ are worked out from the molar mass of the structure shown.
Assays:
Assay type in all cases: functional
[1] = test system: Mycobacterium tuberculosis; experiment: Potency index, ratio of ethionamide MIC to compound MIC for Mycobacterium tuberculosis
[2] = test system: Mycobacterium tuberculosis; experiment: Potency index, ratio of ofloxacin MIC to compound MIC for Mycobacterium tuberculosis
[3] = test system: Mycobacterium tuberculosis; experiment: Potency index, ratio of isoniazid MIC to compound MIC for Mycobacterium tuberculosis
[4] = test system: Mycobacterium tuberculosis; experiment: Potency index, ratio of ethambutol MIC to compound MIC for Mycobacterium tuberculosis
[5] = test system: Mycobacterium tuberculosis; experiment: Antimycobacterial activity against Mycobacterium tuberculosis
[6] = test system: Mycobacterium tuberculosis; experiment: Potency index, ratio of streptomycin MIC to compound MIC for Mycobacterium tuberculosis
[7] = test system: Mycobacterium tuberculosis; experiment: Potency index, ratio of PA-824 MIC to compound MIC for Mycobacterium tuberculosis

Cc1ccn2c(C(=O)NCc3ccccc3Cl)c(C)nc2c1
Ratio [1]: >100 | Ratio [2]: >100 | Ratio [3]: >100 | Ratio [4]: >100 | MIC [5]: 3 nM (≈ 0.941 ng/mL) | Ratio [6]: >100 | Ratio [7]: >100

— ChEMBL document CHEMBL4196086, “Recent advances of imidazole-containing derivatives as anti-tubercular agents” (Eur J Med Chem, 2018)
